Results as given in patent US20230219956A1 (BETTA PHARMACEUTICALS CO.,LTD, priority 2019, published 2023).

Columns and labels:
MIA-PACA-2 cells = assay: Cell proliferation assay, MIA-PACA-2 cells (Cell-titer Glo); type: cell-based; details: Homo sapiens, 96 h incubation
Method: (§1) Pave the MIA-PACA-2 cells into a 96-well ultra-low adsorption plate at 600 cells, 160 μL/well. After incubating overnight, compound solutions of gradient concentration was prepared, and added 40 μL of DMSO solution of the test compound of each concentration to the cells of each well. The final concentration of the compound is 10000, 2000, 400, 80, 16, 3.2, 0.64, 0.12, 0.025, 0 nM (the final concentration of DMSO is 0.25%). Incubated for 96 h at 37° C. and 5% CO2. 50 μL of Cell-titer Glo working solution was added to each well, shaked and mixed, and incubated at room temperature for 10 minutes. The multi-functional microplate reader read the luminescence value, and converted the luminescence value reading into inhibition percentage.
(§2) Inhibition percentage=(maximum value−reading)/(maximum value−minimum value)*100.
(§3) The “maximum value” was the DMSO control, the “minimum value” indicates the cell-free control group.
(§4) Graphpad Prism software was used to perform curve fitting and obtain IC50 value.
Refer to Table 3 for the IC50 data of some compounds in the examples inhibiting MIA-PACA-2 cells.

H358 cells = assay: Cell proliferation assay, H358 cells (Cell-titer Glo); type: cell-based; details: Homo sapiens, NCI-H358, 96 h incubation
Method: as §1, with “the H358” for “the MIA-PACA-2”, “cells on” for “cells into”, “plate with 2000 cells and 190” for “plate at 600 cells, 160”, “added 10” for “added 40”, “10000, 3333.3, 1111.1, 370.4, 123.5, 41.2, 13.7, 4.6, 1.5,” for “10000, 2000, 400, 80, 16, 3.2, 0.64, 0.12, 0.025,”
as §2, §3, §4
Refer to table 3 for the IC50 data of some compounds in the Examples for inhibiting H358 cells.

| IC50 (MIA-PACA-2 cells) | IC50 (H358 cells) | SMILES |
| --- | --- | --- |
| 10.1 nM | 10.6 nM | C=CC(=O)N1CC2(CCN(c3nc(C4CCN(CC(C)(C)O)CC4)nc4c(OCC(F)(F)F)c(-c5c(C)ccc6[nH]ncc56)c(CC)cc34)CC2)C1 [Example 36, 1-(7-(6-ethyl-2-(1-(2-hydroxy-2-methylpropyl)piperidin-4-yl)-7-(5-methyl-1H-indazol-4-yl)-8-(2,2,2-trifluoroethoxy)quinazolin-4-yl)-2,7-diazaspiro[3.5]nonan-2-yl) prop-2-en-1-one] |
| 23.4 nM | 18.4 nM | C=CC(=O)N1CC2(CCN(c3nc(C4CCN(C5COC5)CC4)nc4c(OCC(F)(F)F)c(-c5c(C)ccc6[nH]ncc56)c(CC)cc34)CC2)C1 [Example 37] |
| 29.6 nM | 19.6 nM | C=CC(=O)N1CC2(CCN(c3nc(C4CN(C5CCOCC5)C4)nc4c(OCC(F)(F)F)c(-c5c(C)ccc6[nH]ncc56)c(CC)cc34)CC2)C1 [Example 42, 1-(7-(6-ethyl-7-(5-methyl-1H-indazole-4-yl)-2-(1-(tetrahydro-2H-pyran-4-yl)azacyclobutane-3-yl)-8-(2,2,2-trifluoroethoxy)quinazolin-4-yl)-2,7-diazspiro [3.5]nonan-2-yl) propyl-2-en-1-one] |
| 455 nM | 1080 nM | C=CC(=O)N1CC2(CCN(c3nc(C4CCN(C)CC4)nc4c(OCCF)c(-c5c(C)ccc6[nH]ncc56)c(CC)cc34)CC2)C1 [Example 29] |
| 78 nM | 97.8 nM | C=CC(=O)N1CC2(CCN(c3nc(C4CN(CCC#N)C4)nc4c(OCC(F)(F)F)c(-c5c(C)ccc6[nH]ncc56)c(CC)cc34)CC2)C1 [Example 39, 3-(3-(4-(2-acryloyl-2,7-diazaspiro[3.5]nonan-7-yl)-6-ethyl-7-(5-methyl-1H-indazol-4-yl)-8-(2,2,2-trifluoroethoxy)quinazolin-2-yl)azetidin-1-yl)propionitrile] |
| 4 nM | 4.1 nM | C=CC(=O)N1CC2(CCN(c3nc(C4CCN(CC(C)(C)O)CC4)nc4c(OCC(F)(F)F)c(-c5c(C)ccc6[nH]ncc56)c(C=C)cc34)CC2)C1 [Example 60] |
| 91.9 nM | 20.4 nM | C=CC(=O)N1CC2(CCN(c3nc(C4CCN(C)CC4)nc4c(OCC5CC5)c(-c5c(C)ccc6[nH]ncc56)c(CC)cc34)CC2)C1 [Example 31] |
| 6.8 nM | 7.3 nM | C=CC(=O)N1CC2(CCN(c3nc(C4CCN(CCS(C)(=O)=O)CC4)nc4c(OCC(F)(F)F)c(-c5c(C)ccc6[nH]ncc56)c(C=C)cc34)CC2)C1 [Example 57, 1-(7-(7-(5-methyl-1H-indazol-4-yl)-2-(1-(2-(methylsulfonyl)ethyl)piperidine-4-yl)-8-(2,2,2-trifluoroethoxy)-6-vinylquinazolin-4-yl)-2,7-diazaspiro[3.5]nonan-2-yl) prop-2-en-1-one] |
| 32.6 nM | 13 nM | C=CC(=O)N1CC2(CCN(c3nc(C4CCN(C)CC4)nc4c(OCC)c(-c5c(C)ccc6[nH]ncc56)c(CC)cc34)CC2)C1 [Example 25] |

Continued, compound first:

| SMILES | IC50 (MIA-PACA-2 cells) | IC50 (H358 cells) |
| --- | --- | --- |
| C=CC(=O)N1CC2(CCN(c3nc(C4CCN(C5CCN(C(C)=O)CC5)CC4)nc4c(OCC(F)(F)F)c(-c5c(C)ccc6[nH]ncc56)c(C=C)cc34)CC2)C1 [Example 72, 1-(7-(2-(1acetyl-[1,4'-bipiperidine]-4-yl)-7-(5-methyl-1H-indazole-4-yl)-8-(2,2,2-trifluoroethoxy)-6-vinylquinazolin-4-yl)-2,7-diazspiro [3.5]nonan-2-yl) propyl-2-en-1-one] | 5.9 nM | 5.2 nM |
| C=CC(=O)N1CCC(c2nc(N3CCC4(CC3)CN(C(=O)C=C)C4)c3cc(C=C)c(-c4c(C)ccc5[nH]ncc45)c(OCC(F)(F)F)c3n2)CC1 [Example 64, 1-(4-(4-(2-acryloyl-2,7-diazazospiro [3.5]nonan-7-yl)-7-(5-methyl-1H-indazole-4-yl)-8-(2,2,2-trifluoroethoxy)-6-vinylquinazolin-2-yl)piperidin-1-yl) propyl-2-en-1-one] | 57.1 nM | 16.6 nM |
| C=CC(=O)N1CC2(CCN(c3nc(C4CCN(C)CC4)nc4c(OC(C)C)c(-c5c(C)ccc6[nH]ncc56)c(CC)cc34)CC2)C1 [Example 27] | 388 nM | 392 nM |
| C=CC(=O)N1CC2(CCN(c3nc(C4CCN(C)CC4)nc4c(OCC(C)(C)O)c(-c5c(C)ccc6[nH]ncc56)c(C=C)cc34)CC2)C1 [Example 47, 1-(7-(8-(2-hydroxy-2-methylpropoxy)-7-(5-methyl-1H-indazol-4-yl)-2-(1-methylpiperidin-4-yl)-6-vinylquinazoline-4-yl)-2,7-diazaspiro[3.5]nonan-2-yl)prop-2-en-1-one] | 47.7 nM | 39 nM |
| C=CC(=O)N1CC2(CCN(c3nc(C4CCN(C(=O)OC)CC4)nc4c(OCC(F)F)c(-c5c(C)ccc6[nH]ncc56)c(C=C)cc34)CC2)C1 [Example 85, Methyl 4-(4-(2-acryloyl-2,7-diazazospiro [3.5]nonan-7-yl)-8-(2,2-difluoroethoxy)-7-(5-methyl-1H-indazole-4-yl)-6-vinylquinazolin-2-yl) piperidine-1-carboxylic acid] | 91.7 nM | 124 nM |
| C=CC(=O)N1CC2(CCN(c3nc(C4CCN(C)CC4)nc4c(OCC)c(-c5c(C)ccc6[nH]ncc56)c(C=C)cc34)CC2)C1 [Example 11, 1-(7-(8-ethoxy-7-(5-methyl-1H-indazol-4-yl)-2-(1-methylpiperidin-4-yl)-6-vinylquinazolin-4-yl)-2,7-diazaspiro[3.5]nonan-2-yl)prop-2-en-1-one] | 4.8 nM | 4.7 nM |
| C=CC(=O)N1CC2(CCN(c3nc(C4CCN(C)CC4)nc4c(OC5CCC5)c(-c5c(C)ccc6[nH]ncc56)c(CC)cc34)CC2)C1 [Example 26] | 68.2 nM | 24.9 nM |
| C=CC(=O)N1CC2(CCN(c3nc(C4CCN(C)CC4)nc4c(OCC(F)F)c(-c5c(C)ccc6[nH]ncc56)c(C5CC5)cc34)CC2)C1 [Example 24, 1-(7-(6-cyclopropyl-8-(2,2-difluoroethoxy)-7-(5-methyl-1H-indazol-4-yl)-2-(1-methylpiperidin-4-yl)quinazolin-4-yl)-2,7-diazaspiro[3.5]nonan-2-yl)prop-2-en-1-one] | 14.5 nM | 17.7 nM |
| C=CC(=O)N1CC2(CCN(c3nc(C4CCN(C)CC4)nc4c(OCC(F)(F)F)c(-c5cc(F)cc(F)c5)c(C5CC5)cc34)CC2)C1 [Example 20] | 1320 nM | 4200 nM |
| C=CC(=O)N1CC2(CCN(c3nc(C4CCN(CC(=O)C(C)(C)C)CC4)nc4c(OCC(F)(F)F)c(-c5c(C)ccc6[nH]ncc56)c(C=C)cc34)CC2)C1 [Example 70, 1-(4-(4-(2-acryloyl-2,7-diazspiro [3.5]nonan-7-yl)-7-(5-methyl-1H-indazole-4-yl)-8-(2,2,2-trifluoroethoxy)-6-vinylquinazolin-2-yl)piperidin-1-yl)-3,3-dimethylbutane-2-one] | 13.7 nM | 15.5 nM |
| C=CC(=O)N1CC2(CCN(c3nc(C4CCN(C)CC4)nc4c(OC5CCC5)c(-c5c(C)ccc6[nH]ncc56)c(Cl)cc34)CC2)C1 [Example 33] | 42.9 nM | 69.7 nM |
| C=CC(=O)N1CC2(CCN(c3nc(C4CCN(C5CC6CCC(C5)N6C)CC4)nc4c(OCC(F)(F)F)c(-c5c(C)ccc6[nH]ncc56)c(C=C)cc34)CC2)C1 (stereo not drawn) [Example 83, 1-(7-(7-(5-methyl-1H-indazole-4-yl)-2-(1-(8-methyl-8-azabicyclo [3.2.1]cindan-3-yl]piperidin-4-yl)8(2,2,2-trifluoroethoxy)-6-vinylquinazolin-4-yl)-2,7-diazspiro [3.5]nonan-2-yl) propyl-2-en-1-one] | 136 nM | 159 nM |
| C=CC(=O)N1CC2(CCN(c3nc(C4CCN(C)CC4)nc4c(OCC5(C#N)CC5)c(-c5c(C)ccc6[nH]ncc56)c(C=C)cc34)CC2)C1 [Example 49] | 9.8 nM | 11.5 nM |
| C=CC(=O)N1CC2(CCN(c3nc(C4CCN(C)CC4)nc4c(OC)c(-c5c(C)ccc6[nH]ncc56)c(C=C)cc34)CC2)C1 [Example 13, 1-(7-(8-methoxy-7-(5-methyl-1H-indazol-4-yl)-2-(1-methylpiperidin-4-yl)-6-vinylquinazolin-4-yl)-2,7-diazaspiro[3.5]nonan-2-yl)prop-2-en-1-one] | 22 nM | 26.3 nM |
| C=CC(=O)N1CC2(CCN(c3nc(C4CCN(C)CC4)nc4c(OCCOC)c(-c5c(C)ccc6[nH]ncc56)c(C5CC5)cc34)CC2)C1 [Example 22, 1-(7-(6-cyclopropyl-8-(2-methoxyethoxy)-7-(5-methyl-1H-indazol-4-yl)-2-(1-methylpiperidin-4-yl)quinazolin-4-yl)-2,7-diazaspiro[3.5]nonan-2-yl)prop-2-en-1-one] | 21 nM | 49.6 nM |
